# Test results taken from patent publication US11013235B2 (priority 2015, dated 2021).
# Read-outs that look alike come from different tables or passages of the source.
# How the values were obtained:
# Assay type in all cases: in vivo
# [1] = test system: Candidatus 'Liberibacter asiaticus'; settings: spraying every 15 days, 12 months after treatment, Citrus sinensis with HLB
# Phytophthora parasitica = test: Control of Phytophthora parasitica disease in tobacco (Pp-Nt); settings: 1 μM spraying every 24 hours for one week, water control 91
# Rhizoctonia solani [2] = test: Control of Rhizoctonia solani disease in tobacco (Rs-Nt); settings: 1 μM spraying every 24 hours for one week, water control 87
# Nocardia sp = test: Control of Nocardia sp disease in tobacco (N-Nt); settings: 1 μM spraying every 24 hours for one week, water control 58
# Procedure, shortened: (§1)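 Lesion diameter was the measure for Botrytis infection, percentage of leaves showing symptoms for Alternaria, and mortality rate for Nocardia. Compounds at 1 μM were sprayed daily for a week onto already inoculated plants, in groups of fifty, alongside water-treated controls.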
# Rhizoctonia solani [3] = test: Control of Rhizoctonia solani disease in tomato (Rs-SI); settings: 1 μM spraying every 24 hours for one week, water control 96
# Alternaria solani = test: Control of Alternaria solani disease in tomato (As-SI); settings: 1 μM spraying every 24 hours for one week, water control 68
# Procedure, shortened: as §1
# Botrytis cinerea [4] = test: Control of Botrytis cinerea disease in Arabidopsis (Bc-At); settings: 1 μM spraying every 24 hours for one week, water control 8.7
# Procedure, shortened: as §1
# Botrytis cinerea [5] = test: Control of Botrytis cinerea disease in tobacco (Bc-Nt); settings: 1 μM spraying every 24 hours for one week, water control 6.7
# Procedure, shortened: as §1
# Botrytis cinerea [6] = test: Control of Botrytis cinerea disease in tomato (Bc-SI); settings: 1 μM spraying every 24 hours for one week, water control 7.4
# Procedure, shortened: as §1
# Radopholus similis = test: Nematode control, nodules per plant: Radopholus similis; settings: 1 μM foliar application every 5 days, evaluation 35 days after, control 45
# Procedure, shortened: (§2)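 Read-out: nodule count per plant at final evaluation 35 days after start. Foliar spray of 1 μM compound (ethanol stock diluted in water) repeated every 5 days, ten plants per treatment.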
# Meloidogyne incognita = test: Nematode control, nodules per plant: Meloidogyne incognita; settings: 1 μM foliar application every 5 days, evaluation 35 days after, control 34
# Procedure, shortened: as §2
# Pratylenchus coffeae = test: Nematode control, nodules per plant: Pratylenchus coffeae; settings: 1 μM foliar application every 5 days, evaluation 35 days after, control 42
# Procedure, shortened: as §2
SMILES,Titers of the bacterium ([1]; 0.001 μM),Titers of the bacterium ([1]; 0.01 μM),Titers of the bacterium ([1]; 1 μM),Titers of the bacterium ([1]; 5 μM),Titers of the bacterium ([1]; 10 μM),Pp-Nt: percentage of mortality (Phytophthora parasitica),Rs-Nt: percentage of mortality (Rhizoctonia solani [2]),N-Nt: percentage of mortality (Nocardia sp),Rs-SI: percentage of mortality (Rhizoctonia solani [3]),As-SI: percentage of leaves with the disease symptoms (Alternaria solani),Bc-At: mean of the diameter of the lesion (Botrytis cinerea [4]),Bc-Nt: mean of the diameter of the lesion (Botrytis cinerea [5]),Bc-SI: mean of the diameter of the lesion (Botrytis cinerea [6]),Rs: number of nodules per plant (Radopholus similis),Mi: number of nodules per plant (Meloidogyne incognita),Pc: number of nodules per plant (Pratylenchus coffeae)
"Cc1c2c(oc(=O)c1CC(=O)NCC(O)CO)C=CC1C(C3CCCCC3)=COC21 (stereo not drawn) [IIJ, 2-{5-cyclohexyl-13-methyl-11-oxo-3,10-dioxatricyclo[7.4.0.0^{2,6}]trideca-1(9),4,7,12-tetraen-12-yl)-N-(2,3-dihydroxypropyl)acetamide]",435 copies per reaction,1 copies per reaction,1 copies per reaction,45 copies per reaction,6541 copies per reaction,1%,4%,2%,2%,3%,0.7 mm,0.9 mm,1.2 mm,12,4,2
"Cc1c2c(oc(=O)c1CC(=O)NCC(O)CO)C=CC1C(C3CCCC3)=COC21 (stereo not drawn) [IIK, 2-{5-cyclopentyl-13-methyl-11-oxo-3,10-dioxatricyclo[7.4.0.0^{2,6}]trideca-1(9),4,7,12-tetraen-12-yl}-N-(2,3-dihydroxypropyl)acetamide]",578 copies per reaction,8 copies per reaction,0 copies per reaction,78 copies per reaction,2365 copies per reaction,0%,0%,1%,2%,8%,1.2 mm,0.3 mm,0.8 mm,0,0,14
"Cc1c2c(oc(=O)c1CC(=O)NCC(O)CO)C=CC1C(c3ccc4ccccc4c3)=COC21 (stereo not drawn) [IIL, N-(2,3-dihydroxypropyl)-2-[13-methyl-5-(naphthalen-2-yl)-11-oxo-3,10-dioxatricyclo[7.4.0.0^{2,6}]trideca-1(9),4,7,12-tetraen-12-yl]acetamide]",635 copies per reaction,1 copies per reaction,0 copies per reaction,65 copies per reaction,5478 copies per reaction,0%,0%,0%,0%,7%,1.1 mm,2.0 mm,1.6 mm,0,0,0
"Cc1c2c(oc(=O)c1CC(=O)NCC(O)CO)C=CC1C=COC21 (stereo not drawn) [IIM, N-(2,3-dihydroxypropyl)-2-{13-methyl-11-oxo-3,10-dioxatricyclo[7.4.0.0^{2,6}]trideca-1(9),4,7,12-tetraen-12-yl}acetamide]",524 copies per reaction,0 copies per reaction,0 copies per reaction,54 copies per reaction,8542 copies per reaction,0%,0%,0%,1%,5%,0.5 mm,0.9 mm,0.8 mm,0,0,0
"Cc1c2c(oc(=O)c1CC(=O)NCC(O)CO)C=CC1C(n3cccc3)=COC21 (stereo not drawn) [IIN, N-(2,3-dihydroxypropyl)-2-[13-methyl-11-oxo-5-(1H-pyrrol-1-yl)-3,10-dioxatricyclo[7.4.0.0^{2,6}]trideca-1(9),4,7,12-tetraen-12-yl]acetamide]",598 copies per reaction,0 copies per reaction,0 copies per reaction,98 copies per reaction,9654 copies per reaction,3%,0%,0%,1%,7%,1.5 mm,1.5 mm,2.5 mm,3,0,0
"Cc1c(CCC(=O)NCC(O)CO)c(=O)oc2cc3occ(C4CCCCC4)c3cc12 (stereo not drawn) [IJ, 3-{6-cyclohexyl-4-methyl-2-oxo-2H-furo[3,2-g]chromen-3-yl}-N-(2,3-dihydroxypropyl)propanamide]",456 copies per reaction,0 copies per reaction,18 copies per reaction,46 copies per reaction,5840 copies per reaction,1%,4%,2%,2%,3%,1.5 mm,1.5 mm,2.5 mm,18,4,24
"Cc1c(CCC(=O)NCC(O)CO)c(=O)oc2cc3occ(C4CCCC4)c3cc12 (stereo not drawn) [IK, 3-{6-cyclopentyl-4-methyl-2-oxo-2H-furo[3,2-g]chromen-3-yl}-N-(2,3-dihydroxypropyl)propanamide]",435 copies per reaction,0 copies per reaction,0 copies per reaction,45 copies per reaction,6521 copies per reaction,0%,0%,1%,2%,8%,2.4 mm,1.5 mm,0.8 mm,0,0,15
"Cc1c(CCC(=O)NCC(O)CO)c(=O)oc2cc3occ(-c4ccc5ccccc5c4)c3cc12 (stereo not drawn) [IL, N-(2,3-dihydroxypropyl)-3-[4-methyl-6-(naphthalen-2-yl)-2-oxo-2H-furo[3,2-g]chromen-3-yl]propanamide]",578 copies per reaction,0 copies per reaction,0 copies per reaction,78 copies per reaction,3574 copies per reaction,0%,0%,0%,0%,7%,0.7 mm,0.9 mm,1.2 mm,0,0,0
"Cc1c(CCC(=O)NCC(O)CO)c(=O)oc2cc3occc3cc12 (stereo not drawn) [IM, N-(2,3-dihydroxypropyl)-3-{4-methyl-2-oxo-2H-furo[3,2-g]chromen-3-yl}propanamide]",635 copies per reaction,0 copies per reaction,0 copies per reaction,65 copies per reaction,3541 copies per reaction,0%,0%,0%,1%,5%,1.2 mm,0.3 mm,0.8 mm,0,0,0
